In patent US11117900B2 (Vertex Pharmaceuticals Incorporated, priority 2012, dated 2021):

What follows are molecules tested on HCT116 colorectal cancer cells (assay: Cisplatin sensitization assay (96 h MTS cell viability)). Conditions: Cisplatin sensitization value.
Format: cell-based
Protocol: Compounds can be screened for their ability to sensitize HCT116 colorectal cancer cells to Cisplatin using a 96 h cell viability (MTS) assay. […] Compounds and Cisplatin are then both added simultaneously to the cell media in 2-fold serial dilutions from a top final concentration of 10 μM as a full matrix of concentrations in a final cell volume of 200 μl, and the cells are then incubated at 37° C. in 5% CO2. After 96 h, 40 μl of MTS reagent (Promega G358a) is added to each well and the cells are incubated for 1 h at 37° C. in 5% CO2.
Compounds with a Cisplatin sensitization value of <0.02 μM are marked with “+++.” Compounds with a Cisplatin sensitization value >0.02 μM but <0.2 μM are marked with “++.” Compounds with a Cisplatin sensitization value >0.2 μM but <5 μM are marked with “+.”
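Further: compound concentration needed to lower the IC50 of Cisplatin alone by a set fold.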

SMILES | Cisplatin Sensitization Assay
Nc1nn2cc(F)cnc2c1C(=O)Nc1cncc(F)c1N1CCC(C(=O)N2CCN3CCCC3C2)CC1 (stereo not shown) [I-G-10, 2-amino-6-fluoro-N-(5-fluoro-4-(4-(octahydropyrrolo[1,2-a]pyrazine-2-carbonyl)piperidin-1-yl)pyridin-3-yl)pyrazolo[1,5-a]pyrimidine-3-carboxamide] | +++ (Compounds with a Cisplatin sensitization value of <0.02 μM are marked with “+++.”)
Nc1nn2cc(F)cnc2c1C(=O)Nc1cnccc1N1CCN2C(=O)CCCC2C1 (stereo not shown) [I-N-244, 2-amino-6-fluoro-N-(4-(6-oxohexahydro-1H-pyrido[1,2-a]pyrazin-2(6H)-yl)pyridin-3-yl)pyrazolo[1,5-a]pyrimidine-3-carboxamide] | +++ (Compounds with a Cisplatin sensitization value of <0.02 μM are marked with “+++.”)
Nc1nn2cc(F)cnc2c1C(=O)Nc1cncc(F)c1C1=CCN(C2COC2)CC1 [I-C-12, 2-amino-6-fluoro-N-(5-fluoro-1′-(oxetan-3-yl)-1′,2′,3′,6′-tetrahydro-[4,4′-bipyridin]-3-yl)pyrazolo[1,5-a]pyrimidine-3-carboxamide] | +++ (Compounds with a Cisplatin sensitization value of <0.02 μM are marked with “+++.”)
N#CCc1cnc2c(C(=O)Nc3cnccc3OC3CCOCC3)c(N)nn2c1 [I-O-30, 2-amino-6-(cyanomethyl)-N-(4-((tetrahydro-2H-pyran-4-yl)oxy)pyridin-3-yl)pyrazolo[1,5-a]pyrimidine-3-carboxamide] | +++ (Compounds with a Cisplatin sensitization value of <0.02 μM are marked with “+++.”)
N#CCc1cnc2c(C(=O)Nc3cnccc3O[C@H]3CCOC3)c(N)nn2c1 [I-O-42, (S)-2-amino-6-(cyanomethyl)-N-(4-((tetrahydrofuran-3-yl)oxy)pyridin-3-yl)pyrazolo[1,5-a]pyrimidine-3-carboxamide] | +++ (Compounds with a Cisplatin sensitization value of <0.02 μM are marked with “+++.”)
Nc1nn2cc(F)cnc2c1C(=O)Nc1cncc(F)c1N1CCC(S(=O)(=O)N2CCN3CCC2CC3)CC1 [I-N-273, N-(4-(4-(1,4-diazabicyclo[3.2.2]nonan-4-ylsulfonyl)piperidin-1-yl)-5-fluoropyridin-3-yl)-2-amino-6-fluoropyrazolo[1,5-a]pyrimidine-3-carboxamide] | +++ (Compounds with a Cisplatin sensitization value of <0.02 μM are marked with “+++.”)
CS(=O)(=O)C1CN(C(=O)C2CCN(c3ccncc3NC(=O)c3c(N)nn4cc(F)cnc34)CC2)C1 [I-G-89, 2-amino-6-fluoro-N-(4-(4-(3-(methylsulfonyl)azetidine-1-carbonyl)piperidin-1-yl)pyridin-3-yl)pyrazolo[1,5-a]pyrimidine-3-carboxamide] | + (Compounds with a Cisplatin sensitization value >0.2 μM but <5 μM are marked with “+.”)
N#CC1(C(=O)N2CCC(c3ccncc3NC(=O)c3c(N)nn4cc(F)cnc34)CC2)CC1 [I-C-71, 2-amino-N-(4-(1-(1-cyanocyclopropanecarbonyl)piperidin-4-yl)pyridin-3-yl)-6-fluoropyrazolo[1,5-a]pyrimidine-3-carboxamide] | +++ (Compounds with a Cisplatin sensitization value of <0.02 μM are marked with “+++.”)
CS(=O)(=O)C1CCCN(c2ccncc2NC(=O)c2c(N)nn3cc(F)cnc23)C1 (stereo not shown) [I-N-221, 2-amino-6-fluoro-N-(4-(3-(methylsulfonyl)piperidin-1-yl)pyridin-3-yl)pyrazolo[1,5-a]pyrimidine-3-carboxamide] | ++ (Compounds with a Cisplatin sensitization value >0.02 μM but <0.2 μM are marked with “++.”)
Nc1nn2cc(Cl)cnc2c1C(=O)Nc1cnccc1N1CCC(N2CCOCC2)CC1 [I-N-104, 2-amino-6-chloro-N-(4-(4-morpholinopiperidin-1-yl)pyridin-3-yl)pyrazolo[1,5-a]pyrimidine-3-carboxamide] | +++ (Compounds with a Cisplatin sensitization value of <0.02 μM are marked with “+++.”)
Nc1nn2cc(F)cnc2c1C(=O)Nc1cnccc1N1CCN(S(=O)(=O)C2CCOC2)CC1 (stereo not shown) [I-N-179, 2-amino-6-fluoro-N-(4-(4-((tetrahydrofuran-3-yl)sulfonyl)piperazin-1-yl)pyridin-3-yl)pyrazolo[1,5-a]pyrimidine-3-carboxamide] | +++ (Compounds with a Cisplatin sensitization value of <0.02 μM are marked with “+++.”)
CN(C)C(=O)C1CN(c2ccncc2NC(=O)c2c(N)nn3cc(F)cnc23)CCO1 (stereo not shown) [I-N-234, 4-(3-(2-amino-6-fluoropyrazolo[1,5-a]pyrimidine-3-carboxamido)pyridin-4-yl)-N,N-dimethylmorpholine-2-carboxamide] | + (Compounds with a Cisplatin sensitization value >0.2 μM but <5 μM are marked with “+.”)
N#CCc1cnc2c(C(=O)Nc3cnccc3O[C@@H]3CCOC3)c(N)nn2c1 [I-O-31, (R)-2-amino-6-(cyanomethyl)-N-(4-((tetrahydrofuran-3-yl)oxy)pyridin-3-yl)pyrazolo[1,5-a]pyrimidine-3-carboxamide] | +++ (Compounds with a Cisplatin sensitization value of <0.02 μM are marked with “+++.”)
CC1(N2CCN(c3ccncc3NC(=O)c3c(N)nn4cc(F)cnc34)CC2)COC1 [I-N-62, 2-amino-6-fluoro-N-(4-(4-(3-methyloxetan-3-yl)piperazin-1-yl)pyridin-3-yl)pyrazolo[1,5-a]pyrimidine-3-carboxamide] | ++ (Compounds with a Cisplatin sensitization value >0.02 μM but <0.2 μM are marked with “++.”)
COCC1CCN(c2ccncc2NC(=O)c2c(N)nn3cc(F)cnc23)CC1 [I-N-282, 2-amino-6-fluoro-N-(4-(4-(methoxymethyl)piperidin-1-yl)pyridin-3-yl)pyrazolo[1,5-a]pyrimidine-3-carboxamide] | +++ (Compounds with a Cisplatin sensitization value of <0.02 μM are marked with “+++.”)
N#CCc1cnc2c(C(=O)Nc3cnccc3OCCCO)c(N)nn2c1 [I-O-40, 2-amino-6-(cyanomethyl)-N-(4-(3-hydroxypropoxy)pyridin-3-yl)pyrazolo[1,5-a]pyrimidine-3-carboxamide] | ++ (Compounds with a Cisplatin sensitization value >0.02 μM but <0.2 μM are marked with “++.”)
COc1ccncc1NC(=O)c1c(N)nn2cc(C(C)C#N)cnc12 (stereo not shown) [I-O-21, 2-amino-6-(1-cyanoethyl)-N-(4-methoxypyridin-3-yl)pyrazolo[1,5-a]pyrimidine-3-carboxamide] | ++ (Compounds with a Cisplatin sensitization value >0.02 μM but <0.2 μM are marked with “++.”)
Nc1nn2cc(F)cnc2c1C(=O)Nc1cncc(F)c1N1CC(=O)N2CCCC2C1 (stereo not shown) [I-N-232, 2-amino-6-fluoro-N-(5-fluoro-4-(4-oxohexahydropyrrolo[1,2-a]pyrazin-2(1H)-yl)pyridin-3-yl)pyrazolo[1,5-a]pyrimidine-3-carboxamide] | ++ (Compounds with a Cisplatin sensitization value >0.02 μM but <0.2 μM are marked with “++.”)
Nc1nn2cc(F)cnc2c1C(=O)Nc1cncc(F)c1N1CCN2CCOC[C@@H]2C1 [I-N-137, (S)-2-amino-6-fluoro-N-(5-fluoro-4-(hexahydropyrazino[2,1-c][1,4]oxazin-8(1H)-yl)pyridin-3-yl)pyrazolo[1,5-a]pyrimidine-3-carboxamide] | ++ (Compounds with a Cisplatin sensitization value >0.02 μM but <0.2 μM are marked with “++.”)
